Patent US10947216B2, “Amide compounds and method for making and using” (Rigel Pharmaceuticals, Inc., priority 2016, dated 2021)

Assays:
IL-23p19 = experiment: LPS Induced IL23p19 in THP-1 Cells (with IFNγ Primed) Assay; type: cell-based, human; conditions: Homo sapiens, THP-1, THP-1 cells, IFNγ (50 ng/mL) primed, 1 hour compound pre-incubation, LPS 1 ug/mL 18 hours, 10 pt; read-out: IL23-p19 ELISA, THP1-IFNy, LPS, 10 pt EC50
Procedure: LPS Induced IL23p19 in THP-1 Cells (with IFNγ Primed) Assay
Method THP-1 Cells Stimulation:
On day 1, 50K/well THP-1 cells were seeded and primed with IFNγ (50 ng/mL) in 384-well plates for about 18 hours in RPMI media with 10% FBS. […] 50 μL/well 2× compound was added to 50 μL/well THP-1 cells (with IFNγ primed) in duplicate in 384 well tissue culture plates. […] Day 3, after stimulation for 18 hours at 37° C., 5% CO2, the assay plate was centrifuged and 70 μL/well supernatant was harvested. IL-23p19 protein in 70 μL/well of supernatant was measured by sandwich ELISA, and 25 μl/well Cell Titer Glo reagent was added to the remaining cells to measure compound toxicity.
Human IL-23p19 Sandwich ELISA:
Maxisorp immuno ELISA plates were pre-coated with 25 μL/well of anti-IL-23p19 capture antibody (2.5 ug/mL) in PBS overnight at room temperature. After washing with 1×PBST, the plates were blocked using 100 μL/well of 1% BSA in PBS for 2 hours at room temperature. The plates were washed three times with 1×PBST and 70 μL/well supernatant were added. The plates were incubated at room temperature for 2 hours with shaking and washed three times with 1×PBST. 25 μL/well of biotin labeled anti-IL-12(p40/p70) detection antibody (100 ng/mL) in PBS with 1% BSA was added and the plates were incubated at room temperature for 2 hours with shaking. After washing three times with 1×PBST, 25 μL/well of streptavidin-HRP (1:200) in PBS with 1% BSA was added and the plates were incubated at room temperature for 20 minutes with shaking. The plates were washed three times with 1×PBST and 25 μL/well of Super Signal ELISA Pico Chemiluminescent Substrate were added. The plates were read with a luminometer, and the chemiluminescence values were entered into Athena (Rigel) for curve fitting, EC50 calculation, and database storage.

IL-23 (p19/p40) = experiment: IL23-p19 ELISA, dendritic cells (DC differentiated from human PBMC, IFNγ primed), LPS stimulated; type: cell-based; conditions: Dendritic cell, human PBMC-derived dendritic cells, 1 h compound pre-incubation, LPS 1 μg/ml 18 hours, 10 pt
Procedure: Compound Screening Using DC Cells
I. Differentiation of PBMC's to DC Cells:
After 2 hours, the media including floating cells was aspirated out carefully and 12 ml of fresh RPMI media (10% FBS) containing GMCSF (100 ng/ml) and IL4 (20 ng/ml) was added, and the flask was kept in a 37° C. incubator for 7 days.
After 3 days, fresh GMCSF (100 ng/ml) and IL4 (20 ng/ml) were added to the flask and the incubation continued. After 7 days, the fully differentiated cells were harvested by spinning down (1200 rpm/5 min) and aspirating the media. The cells were suspended in fresh RPMI media (10% FBS) containing 50 ng/ml IFNγ (1000 U/ml) and then plated (50K/well in 100 μl) onto a white clear bottom 96 well plate and left in a 37° C. incubator for 24 hours.
II. Addition of Compounds:
After 24 hours incubation, 100 μl of RPMI media was added containing 2× concentrated test compound per well to the above cell-culture media (final concentration becomes 1×) and the plates were pre-incubated for 1 hour at 37° C. before stimulating with LPS.
The mixture was shaken and incubated the plates at 37° C. for an additional 18 hours.
155 μl of the supernatant was harvested from each well carefully (without the tip touching the bottom of the well) and to the remaining 50 μl/well of the cell culture plate was added 50 μl of Cell Titer Glo reagent. The mixture was incubated for 1-2 minutes on a shaker and the plate was read for luminescence intensity to determine the compound cytotoxicity. The cell culture supernatant collected above was used to carry out IL23 ELISA (65 μl—Supernatant) and IL10 ELISA (90 μl—Supernatant) as described below.
Human IL-23 (p19/p40) ELISA Protocol (e-Biosciences)
To 10.5 ml PBS add 50 μl of anti-IL23 (p19) was added capture antibody (2.5 μg/ml). The mixture was mixed well and 100 μl of the coating solution was added to each well of the 96 well white plates from Pierce. The wells were covered and incubated overnight at 4° C.
The anti-IL23 (p19)-antibody-coated plates were washed 2× using TBST (use plate washer) and blocked using 200 μl of 0.5% Casein for 1.5-2 hours at room temperature with shaking.
Addition of Supernatant and Detection:
The plates were washed 2× using TBST and the supernatant was transferred (65 μl/well) to the above pre-blocked/IL23(p19)-antibody-coated 96 well plate, and incubated at room temperature for 1.5 hours with shaking.
The plates were washed 4× using TBST (plate washer) and 100 μl/well detection antibody solution prepared from 2 μl of biotin labeled anti-IL-12 (p40/p70) antibody in 11 ml 1% BSA/PBS solution (1-5000 dilution) was added. The plates were incubated for 1 hour with shaking at Room temperature.
Again, the plates were washed 4× with TBST and 100 μl of HRP labeled Streptavidin (R&D Systems) solution (10 μl/10 ml 1% BSA solution) was added, and the plates were incubated at room temperature for another 45 minutes with shaking.
After 45 minutes, the plates were washed with TBST 4× and 100 μl/well Super Signal ELISA Pico Chemiluminescent Substrate from Pierce (3.5 ml A+3.5 ml B+3.5 ml MQ water) was added. The plates were shaken for 1-2 minutes then read on a plate reader.

Compound	EC50 (IL-23p19) [µM]	EC50 (IL-23 (p19/p40)) [µM]
Cn1cc(NC(=O)c2cccc(-c3cccnc3)n2)c(-c2ccccn2)n1 [Compound I-2, N-(1-methyl-3-(pyridin-2-yl)-1H-pyrazol-4-yl)-[2,3′-bipyridine]-6-carboxamide]	1.26	2.72
Cn1cc(NC(=O)c2cccc(-c3ccn[nH]3)n2)c(-c2ccccn2)n1 [Compound I-6, N-(1-methyl-3-(pyridin-2-yl)-1H-pyrazol-4-yl)-6-(1H-pyrazol-5-yl)picolinamide]	0.536	0.162
Cc1cc(-c2cccc(C(=O)Nc3cn(C)nc3-c3ccccn3)n2)[nH]n1 [Compound I-7, 6-(3-methyl-1H-pyrazol-5-yl)-N-(1-methyl-3-(pyridin-2-yl)-1H-pyrazol-4-yl)picolinamide]	0.533	0.354
Cn1cc(-c2cccc(C(=O)Nc3cn(C)nc3-c3ccccn3)n2)cn1 [Compound I-8, 6-(1-methyl-1H-pyrazol-4-yl)-N-(1-methyl-3-(pyridin-2-yl)-1H-pyrazol-4-yl)picolinamide]	1.7	2.42
Cn1cc(NC(=O)c2cccc(-c3cn[nH]c3)n2)c(-c2ccccn2)n1 [Compound I-9, N-(1-methyl-3-(pyridin-2-yl)-1H-pyrazol-4-yl)-6-(1H-pyrazol-4-yl)picolinamide]	0.281	0.178
Cn1cc(NC(=O)c2cccc(-c3cc[nH]c3)n2)c(-c2ccccn2)n1 [Compound I-11, N-(1-methyl-3-(pyridin-2-yl)-1H-pyrazol-4-yl)-6-(1H-pyrrol-3-yl)picolinamide]	5.9	4.12
Cc1cncc(-c2cccc(C(=O)Nc3cn(C)nc3-c3ccccn3)n2)c1 [Compound I-12, 5′-methyl-N-(1-methyl-3-(pyridin-2-yl)-1H-pyrazol-4-yl)-[2,3′-bipyridine]-6-carboxamide]	0.25	0.106
Cn1cc(NC(=O)c2cccc(-c3cncc(C4CC4)c3)n2)c(-c2ccccn2)n1 [Compound I-13, 5′-cyclopropyl-N-(1-methyl-3-(pyridin-2-yl)-1H-pyrazol-4-yl)-[2,3′-bipyridine]-6-carboxamide]	1.34	0.531
Cc1ccc(-c2cccc(C(=O)Nc3cn(C)nc3-c3ccccn3)n2)cn1 [Compound I-16, 6′-methyl-N-(1-methyl-3-(pyridin-2-yl)-1H-pyrazol-4-yl)-[2,3′-bipyridine]-6-carboxamide]	6.35	1.2
COc1cncc(-c2cccc(C(=O)Nc3cn(C)nc3-c3ccccn3)n2)c1 [Compound I-19, 5′-methoxy-N-(1-methyl-3-(pyridin-2-yl)-1H-pyrazol-4-yl)-[2,3′-bipyridine]-6-carboxamide]	2.54	5.63
Cn1cc(NC(=O)c2cccc(-c3cncc(OC4CCOCC4)c3)n2)c(-c2ccccn2)n1 [Compound I-23, N-(1-methyl-3-(pyridin-2-yl)-1H-pyrazol-4-yl)-5′-((tetrahydro-2H-pyran-4-yl)oxy)-[2,3′-bipyridine]-6-carboxamide]	2.29	1.79
Cn1cc(NC(=O)c2cccc(-c3cncc(N)c3)n2)c(-c2ccccn2)n1 [Compound I-25, 5′-amino-N-(1-methyl-3-(pyridin-2-yl)-1H-pyrazol-4-yl)-[2,3′-bipyridine]-6-carboxamide]	0.169	0.0347
CNc1cncc(-c2cccc(C(=O)Nc3cn(C)nc3-c3ccccn3)n2)c1 [Compound I-26, N-(1-methyl-3-(pyridin-2-yl)-1H-pyrazol-4-yl)-5′-(methylamino)-[2,3′-bipyridine]-6-carboxamide]	2.87	0.204
Cn1cc(NC(=O)c2cccc(-c3cncc(NC4CC4)c3)n2)c(-c2ccccn2)n1 [Compound I-27, 5′-(cyclopropylamino)-N-(1-methyl-3-(pyridin-2-yl)-1H-pyrazol-4-yl)-[2,3′-bipyridine]-6-carboxamide]	7.02	0.342
CC(C)Nc1cncc(-c2cccc(C(=O)Nc3cn(C)nc3-c3ccccn3)n2)c1 [Compound I-28, 5′-(isopropylamino)-N-(1-methyl-3-(pyridin-2-yl)-1H-pyrazol-4-yl)-[2,3′-bipyridine]-6-carboxamide]	1.45	0.546
Cn1cc(NC(=O)c2cccc(-c3cncc(NC(C)(C)C)c3)n2)c(-c2ccccn2)n1 [Compound I-29, 5′-(tert-butylamino)-N-(1-methyl-3-(pyridin-2-yl)-1H-pyrazol-4-yl)-[2,3′-bipyridine]-6-carboxamide]	16.4	0.91
Cn1cc(NC(=O)c2cccc(-c3cncc(NC4CCOCC4)c3)n2)c(-c2ccccn2)n1 [Compound I-30, N-(1-methyl-3-(pyridin-2-yl)-1H-pyrazol-4-yl)-5′-((tetrahydro-2H-pyran-4-yl)amino)-[2,3′-bipyridine]-6-carboxamide]	0.772	3.21
Cn1cc(NC(=O)c2cccc(-c3cncc(NCC4CC4)c3)n2)c(-c2ccccn2)n1 [Compound I-32, 5′-((cyclopropylmethyl)amino)-N-(1-methyl-3-(pyridin-2-yl)-1H-pyrazol-4-yl)-[2,3′-bipyridine]-6-carboxamide]	2.52	7.19
Cn1cc(NC(=O)c2cccc(-c3cncc(NCC(F)(F)F)c3)n2)c(-c2ccccn2)n1 [Compound I-33, N-(1-methyl-3-(pyridin-2-yl)-1H-pyrazol-4-yl)-5′-((2,2,2-trifluoroethyl)amino)-[2,3′-bipyridine]-6-carboxamide]	3.16	1.02
O=C(Nc1cn(C2CCOCC2)nc1-c1ccccn1)c1cccc(-c2ccncc2)n1 [Compound I-167, N-(3-(pyridin-2-yl)-1-(tetrahydro-2H-pyran-4-yl)-1H-pyrazol-4-yl)-[2,4′-bipyridine]-6-carboxamide]		6.5
Cn1cc(NC(=O)c2cccc(-c3cn[nH]c3)n2)c(-c2ccc(N3CCOCC3)cn2)n1 [Compound I-171, N-(1-methyl-3-(5-morpholinopyridin-2-yl)-1H-pyrazol-4-yl)-6-(1H-pyrazol-4-yl)picolinamide]		2.38
Cn1cc(NC(=O)c2cccc(-c3cc[nH]n3)n2)c(-c2ccc(N3CCOCC3)cn2)n1 [Compound I-172, N-(1-methyl-3-(5-morpholinopyridin-2-yl)-1H-pyrazol-4-yl)-6-(1H-pyrazol-3-yl)picolinamide]		0.0468
